Experiment in all cases: NCI-60 cell line screen, 48 h
Test [1] concerns NCI-H23 lung.
The subject of test [2] is OVCAR-5 ovarian.
For test [3], the system named is MCF7 breast.
Test [4] deals with SK-MEL-5 melanoma.
Test [5] concerns SNB-78 CNS.
Test [6] has as its system CCRF-CEM leukemia.
The test system of test [7] is HL-60(TB) leukemia.
For test [8], the system named is M14 melanoma.
In test [9] the test system is TK-10 renal.
Test [10] relates to MDA-N.
For test [11], the system named is LXFL 529 NSCLC.

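Interpolation was linear, between the two tested concentrations surrounding the appropriate level; five concentrations were tested over 48 hours in 96-well plates. GI50 marks 50% less growth. TGI denotes the concentration required for complete inhibition of growth.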 A value given as a limit tells only on which side of the number the result lay.

Turning to `O=C1Nc2ccccc2Nc2ccncc21`, the TGI in test [1], in test [2], in test [3], in [4], in test [5] and in [6] was greater than 100 µM throughout. In addition, in test [7], the TGI is greater than 100 µM.
Turning to `O=C1C(CN2CCOCC2)CCCC1CN1CCOCC1` (stereo not given), the TGI in [1] was determined as 16.9 µM; in [8], 7.1 µM; in test [2], 36.6 µM; in test [3], 1.57 µM; in test [4], 23.9 µM; in test [5], 5.02 µM. The TGI is 4.03 µM in test [6]; 8.72 µM in test [9]; 16.1 µM in test [10]; 2.96 µM in test [11]; 1.78 µM in test [7].
Take `CC(=O)[CH-]C(=O)c1ccccc1.CC(=O)[CH-]C(=O)c1ccccc1.C[C@]12CCC(=O)C=C1CC[C@@H]1C2CC[C@@]2(C)C1CC[C@]2(C)[O-].C[C@]12CCC(=O)C=C1CC[C@@H]1C2CC[C@@]2(C)C1CC[C@]2(C)[O-].Cl.[Ti+4]` (stereo not given in full): the GI50 in test [1] was 14.2 µM; in test [8], 24.2 µM; in [2], 16.5 µM; in test [6], 9.78 µM; in test [9], 34.2 µM; in test [11] it was 20.7 µM. The GI50 in test [7] is 2.87 µM. The TGI was 35.2 µM in [1]; 83.6 µM in test [8]; greater than 100 µM in test [2]; greater than 100 µM in [6]; greater than 100 µM in test [9]; 76.4 µM in [11]. The compound further had a TGI in test [7] of 13.1 µM.
Regarding `Cc1cc(=O)[nH]c(NN2C(Cl)C(=O)C2c2cccc(Cl)c2)n1` (stereo not given), the TGI is 58.2 µM in test [1]; 35.4 µM in test [8]; greater than 100 µM in [2]; 34.2 µM in [4]; 79.3 µM in test [5]; 41.7 µM in [6]. Moreover, the TGI in [9] is greater than 100 µM; in test [7] it was 40.4 µM.
On to `CCc1nc2ccc(NCCN(C)C)c3c(=O)c4ccccc4n1c23`, for which the TGI turned out to be 3.23 µM in test [1]; 4.68 µM in test [8]; 6.69 µM in [2]; 21.1 µM in test [3]; 2.32 µM in test [4]; 19.3 µM in [5]. Besides, the TGI is 15.1 µM in [6], 12.2 µM in [9], 13.9 µM in test [11] and 8.68 µM in test [7].

Source of the values: PubChem BioAssay (NCI).
